Where two headings read alike, the source gives them in different places.
What was measured:
brain AChE = settings: similar degree of brain AChE inhibition; cited from earlier work
BuChE = BuChE (Homo sapiens, UniProt P06276); experiment: biochemical; assay type: biochemical
Method: (§1) The inhibition of AChE and BChE was determined using a method described earlier. Briefly, the stock solutions (1 mg/mL) of test analogues were prepared using DMSO. The working solutions (1–100 μg/mL) were prepared using serial dilutions (a serial dilution means a series of diluted solutions, e.g., 0.1 mg/mL, 0.2 mg/mL and so on; the solutions contained 5% DMSO and 95% water). The various concentrations of test compounds (10 μL) were pre-incubated with sodium phosphate buffer (0.1 M; pH 8.0; 150 μL) and AChE (0.1 U/mL; 20 μL) for 15 min at 25 °C. The reaction was initiated via the addition of DTNB (1 mM; 10 μL) and […] (1 mM; 10 μL). The mixture of reaction was mixed using a cyclomixer and incubated for 10 min at 25 °C. The absorbance was measured using a microplate reader at a 410 nm wavelength against the blank reading containing 10μL DMSO instead of the test compound (the solution contained 5% DMSO and 95% water).
(§2) % Inhibition = (Absorbance of control—Absorbance of compound)/Absorbance of control × 100

AChE = AChE (Homo sapiens, UniProt P22303); experiment: biochemical; assay type: biochemical; settings: for Selectivity Index: AChE and BuChE IC50 values
AChE, sequence (P22303 32-614): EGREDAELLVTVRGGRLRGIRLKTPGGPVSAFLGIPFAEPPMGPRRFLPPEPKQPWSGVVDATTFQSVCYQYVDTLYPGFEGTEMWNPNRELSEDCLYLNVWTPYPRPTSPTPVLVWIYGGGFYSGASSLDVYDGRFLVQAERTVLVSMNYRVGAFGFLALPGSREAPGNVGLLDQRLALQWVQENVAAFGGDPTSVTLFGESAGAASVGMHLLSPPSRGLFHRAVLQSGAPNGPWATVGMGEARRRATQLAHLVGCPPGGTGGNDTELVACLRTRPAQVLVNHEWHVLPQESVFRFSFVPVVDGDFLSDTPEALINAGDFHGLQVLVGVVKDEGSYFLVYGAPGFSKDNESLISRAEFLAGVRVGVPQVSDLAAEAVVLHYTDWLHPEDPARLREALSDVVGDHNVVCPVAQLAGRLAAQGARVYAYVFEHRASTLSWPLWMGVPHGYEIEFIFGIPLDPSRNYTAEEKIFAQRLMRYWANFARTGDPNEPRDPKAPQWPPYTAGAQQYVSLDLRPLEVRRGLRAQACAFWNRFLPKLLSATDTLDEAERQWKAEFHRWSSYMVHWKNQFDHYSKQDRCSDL
Method: as §1, §2

BuChE, sequence (P06276 29-602): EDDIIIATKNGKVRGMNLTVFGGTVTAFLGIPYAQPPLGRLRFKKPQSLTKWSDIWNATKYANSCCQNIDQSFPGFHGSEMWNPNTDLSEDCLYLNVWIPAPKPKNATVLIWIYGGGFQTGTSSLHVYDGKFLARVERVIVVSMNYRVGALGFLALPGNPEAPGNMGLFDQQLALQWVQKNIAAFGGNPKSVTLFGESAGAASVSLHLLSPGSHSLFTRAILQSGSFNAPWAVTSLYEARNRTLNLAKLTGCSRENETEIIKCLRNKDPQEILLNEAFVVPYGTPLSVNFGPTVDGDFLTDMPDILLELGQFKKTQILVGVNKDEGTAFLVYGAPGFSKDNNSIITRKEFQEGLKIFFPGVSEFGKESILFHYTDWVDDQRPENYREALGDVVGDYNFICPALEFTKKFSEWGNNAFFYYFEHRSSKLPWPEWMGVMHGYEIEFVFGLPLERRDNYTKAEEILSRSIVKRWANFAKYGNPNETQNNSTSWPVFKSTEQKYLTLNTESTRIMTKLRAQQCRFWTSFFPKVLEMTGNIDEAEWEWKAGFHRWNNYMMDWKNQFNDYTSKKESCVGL

| SMILES | doses needed, times greater than those of Donepezil (brain AChE) | IC50 (BuChE; read-out: IC50BuChE) | IC50 (AChE; read-out: IC50AChE) | Selectivity Index (AChE) | IC50 (BuChE) | IC50 (AChE) | IC50BuChE (BuChE) | IC50AChE (AChE) |
| --- | --- | --- | --- | --- | --- | --- | --- | --- |
| COc1ccc2c3c1O[C@H]1C[C@@H](O)C=C[C@@]31CCN(C)C2 [Galantamine] | 3–15 times |  |  |  |  |  |  |  |
| O=[N+]([O-])c1cc(O)c(Cl)cc1-c1csc(N/N=C(/CSc2nc3ccccc3[nH]2)c2ccccc2O)n1 [compound 2, (E)-4-(2-(2-(2-((1H-benzo[d]imidazol-2-yl)thio)-1-(2-hydroxyphenyl)ethylidene)hydrazinyl)thiazol-4-yl)-2-chloro-5-nitrophenol] |  | 3200 ± 100 nM | 2300 ± 100 nM |  |  |  |  |  |
| Oc1ccc(-c2csc(N/N=C(/CSc3nc4ccccc4[nH]3)c3ccccc3)n2)cc1 [compound 3, (E)-4-(2-(2-(2-((1H-benzo[d]imidazol-2-yl)thio)-1-phenylethylidene) hydrazinyl)thiazol-4-yl)phenol] |  | 1800 ± 100 nM | 800 ± 100 nM | 2.25 |  |  |  |  |
| COc1cccc(-c2csc(N/N=C(/CSc3nc4ccccc4[nH]3)c3ccccc3)n2)c1 [compound 4, (E)-2-(2-(2-((1H-benzo[d]imidazol-2-yl)thio)-1-phenylethylidene)hydrazinyl)-4-(3-methoxyphenyl)thiazole] |  | 5300 ± 100 nM | 3500 ± 100 nM | 1.51 |  |  |  |  |
| Cc1ccc(-c2csc(N/N=C(/CSc3nc4ccccc4[nH]3)c3ccccc3)n2)cc1 [compound 5, (E)-2-(2-(2-((1H-benzo[d]imidazol-2-yl)thio)-1-phenylethylidene)hydrazinyl)-4-(p-tolyl)thiazole] |  | 10700 ± 200 nM | 8600 ± 200 nM | 1.24 |  |  |  |  |
| Clc1ccc(-c2csc(N/N=C(/CSc3nc4ccccc4[nH]3)c3ccccc3)n2)cc1Cl [compound 6, (E)-2-(2-(2-((1H-benzo[d]imidazol-2-yl)thio)-1-phenylethylidene)hydrazinyl)-4-(3,4-dichlorophenyl)thiazole] |  | 1400 ± 50 nM | 700 ± 50 nM | 2.0 |  |  |  |  |
| Cc1ccc(/C(CSc2nc3ccccc3[nH]2)=N\Nc2nc(-c3ccccc3[N+](=O)[O-])cs2)cc1 [compound 7, (E)-2-(2-(2-((1H-benzo[d]imidazol-2-yl)thio)-1-(p-tolyl)ethylidene)hydrazinyl)-4-(2-nitrophenyl)thiazole] |  | 3500 ± 100 nM | 2900 ± 100 nM | 1.21 |  |  |  |  |
| Cc1ccc(/C(CSc2nc3ccccc3[nH]2)=N\Nc2nc(-c3cccc([N+](=O)[O-])c3)cs2)cc1 [compound 8, (E)-2-(2-(2-((1H-benzo[d]imidazol-2-yl)thio)-1-(p-tolyl)ethylidene)hydrazinyl)-4-(3-nitrophenyl)thiazole] |  | 7900 ± 100 nM | 6300 ± 100 nM | 1.25 |  |  |  |  |
| O=[N+]([O-])c1cc(O)c(Cl)cc1-c1csc(N/N=C(/CSc2nc3ccccc3[nH]2)c2cccc(O)c2[N+](=O)[O-])n1 [compound 9, (E)-4-(2-(2-(2-((1H-benzo[d]imidazol-2-yl)thio)-1-(3-hydroxy-2-nitrophenyl)ethylidene)hydrazinyl)thiazol-4-yl)-2-chloro-5-nitrophenol] |  |  |  | 2.46 | 3200 ± 100 nM | 1300 ± 100 nM |  |  |
| CN(C)c1cc([N+](=O)[O-])c(-c2csc(N/N=C(/CSc3nc4ccccc4[nH]3)c3ccc(-c4ccccc4)cc3)n2)cc1O [compound 10, (E)-5-(2-(2-(2-((1H-benzo[d]imidazol-2-yl)thio)-1-([1,1’-biphenyl]-4-yl)ethylidene)hydrazinyl)thiazol-4-yl)-2-(dimethylamino)-4-nitrophenol] |  |  |  |  |  |  | inactivity | inactivity |
| Cc1ccc(/C(CSc2nc3ccccc3[nH]2)=N\Nc2nc(-c3ccc(Cl)c(Cl)c3)cs2)cc1 [compound 11, (E)-2-(2-(2-((1H-benzo[d]imidazol-2-yl)thio)-1-(p-tolyl)ethylidene)hydrazinyl)-4-(3,4-dichlorophenyl)thiazole] |  | 1100 ± 100 nM | 400 ± 50 nM | 2.75 |  |  |  |  |
| Cc1ccc(/C(CSc2nc3ccccc3[nH]2)=N\Nc2nc(-c3cc(Cl)c(O)cc3[N+](=O)[O-])cs2)c([N+](=O)[O-])c1 [compound 12, (E)-4-(2-(2-(2-((1H-benzo[d]imidazol-2-yl)thio)-1-(4-methyl-2-nitrophenyl)ethylidene)hydrazinyl)thiazol-4-yl)-2-chloro-5-nitrophenol] |  |  |  | 1.5 | 2100 ± 100 nM | 1400 ± 100 nM |  |  |
| Cc1ccc(-c2csc(N/N=C(/CSc3nc4ccccc4[nH]3)c3ccccc3[N+](=O)[O-])n2)cc1 [compound 13, (E)-2-(2-(2-((1H-benzo[d]imidazol-2-yl)thio)-1-(2-nitrophenyl)ethylidene) hydrazinyl)-4-(p-tolyl)thiazole] |  | 5100 ± 100 nM | 3200 ± 100 nM | 1.59 |  |  |  |  |
| COc1cccc(-c2csc(N/N=C(/CSc3nc4ccccc4[nH]3)c3ccccc3[N+](=O)[O-])n2)c1 [compound 14, (E)-2-(2-(2-((1H-benzo[d]imidazol-2-yl)thio)-1-(2-nitrophenyl)ethylidene) hydrazinyl)-4-(3-methoxyphenyl)thiazole] |  | 4200 ± 100 nM | 3100 ± 100 nM | 1.35 |  |  |  |  |
| O=[N+]([O-])c1ccccc1/C(CSc1nc2ccccc2[nH]1)=N\Nc1nc(-c2ccc(Cl)c(Cl)c2)cs1 [compound 15, (E)-2-(2-(2-((1H-benzo[d]imidazol-2-yl)thio)-1-(2-nitrophenyl)ethylidene) hydrazinyl)-4-(3,4-dichlorophenyl)thiazole] |  | 700 ± 50 nM | 300 ± 50 nM | 2.33 |  |  |  |  |
| O=[N+]([O-])c1ccccc1/C(CSc1nc2ccccc2[nH]1)=N\Nc1nc(-c2ccc(O)cc2)cs1 [compound 16, (E)-4-(2-(2-(2-((1H-benzo[d]imidazol-2-yl)thio)-1-(2-nitrophenyl)ethylidene) hydrazinyl)thiazol-4-yl)phenol] |  | 500 ± 50 nM | 200 ± 50 nM | 2.5 |  |  |  |  |
| O=[N+]([O-])c1ccccc1-c1csc(N/N=C(/CSc2nc3ccccc3[nH]2)c2ccc(Cl)c(Cl)c2)n1 [compound 17, (E)-2-(2-(2-((1H-benzo[d]imidazol-2-yl)thio)-1-(3,4-dichlorophenyl)ethylidene) hydrazinyl)-4-(2-nitrophenyl)thiazole] |  | 1800 ± 100 nM | 1100 ± 50 nM | 1.64 |  |  |  |  |
| O=[N+]([O-])c1cccc(-c2csc(N/N=C(/CSc3nc4ccccc4[nH]3)c3ccc(Cl)c(Cl)c3)n2)c1 [compound 18, (E)-2-(2-(2-((1H-benzo[d]imidazol-2-yl)thio)-1-(3,4-dichlorophenyl)ethylidene) hydrazinyl)-4-(3-nitrophenyl)thiazole] |  | 1200 ± 100 nM | 700 ± 50 nM | 1.71 |  |  |  |  |
| Cc1ccc(-c2csc(N/N=C(/CSc3nc4ccccc4[nH]3)c3ccc(Cl)c(Cl)c3)n2)cc1 [compound 19, (E)-2-(2-(2-((1H-benzo[d]imidazol-2-yl)thio)-1-(3,4-dichlorophenyl)ethylidene) hydrazinyl)-4-(p-tolyl)thiazole] |  | 1300 ± 100 nM | 1400 ± 100 nM | 0.92 |  |  |  |  |
| COc1cccc(-c2csc(N/N=C(/CSc3nc4ccccc4[nH]3)c3ccc(Cl)c(Cl)c3)n2)c1 [compound 20, (E)-2-(2-(2-((1H-benzo[d]imidazol-2-yl)thio)-1-(3,4-dichlorophenyl)ethylidene) hydrazinyl)-4-(3-methoxyphenyl)thiazole] |  | 1900 ± 100 nM | 1200 ± 100 nM | 1.58 |  |  |  |  |
| Clc1ccc(/C(CSc2nc3ccccc3[nH]2)=N\Nc2nc(-c3ccc(Cl)c(Cl)c3)cs2)cc1Cl [compound 21, (E)-2-(2-(2-((1H-benzo[d]imidazol-2-yl)thio)-1-(3,4-dichlorophenyl)ethylidene) hydrazinyl)-4-(3,4-dichlorophenyl)thiazole] |  | 200 ± 50 nM | 100 ± 50 nM | 2.0 |  |  |  |  |
| COc1ccccc1-c1csc(N/N=C(/CSc2nc3ccccc3[nH]2)c2ccc(Cl)c(Cl)c2)n1 [compound 22, (E)-2-(2-(2-((1H-benzo[d]imidazol-2-yl)thio)-1-(3,4-dichlorophenyl)ethylidene) hydrazinyl)-4-(2-methoxyphenyl)thiazole] |  | 700 ± 100 nM | 400 ± 200 nM | 1.75 |  |  |  |  |
| Clc1ccc(/C(CSc2nc3ccccc3[nH]2)=N\Nc2nc(-c3ccc(Br)cc3)cs2)cc1Cl [compound 23, (E)-2-(2-(2-((1H-benzo[d]imidazol-2-yl)thio)-1-(3,4-dichlorophenyl)ethylidene) hydrazinyl)-4-(4-bromophenyl)thiazole] |  | 6700 ± 100 nM | 4700 ± 100 nM | 1.43 |  |  |  |  |
| Cc1ccc(/C(CSc2nc3ccccc3[nH]2)=N\Nc2nc(-c3ccc(C)cc3)cs2)cc1 [compound 24, (E)-2-(2-(2-((1H-benzo[d]imidazol-2-yl)thio)-1-(p-tolyl)ethylidene)hydrazinyl)-4-(p-tolyl)thiazole] |  | 14200 ± 100 nM | 11100 ± 300 nM | 1.28 |  |  |  |  |

Source: PMC9504419, “Multipotent Cholinesterase Inhibitors for the Treatment of Alzheimer’s Disease: Synthesis, Biological Analysis and Molecular Docking Study of Benzimidazole-Based Thiazole Derivatives” (Molecules, 2022)
